The results in this text go back to paper PMC11133381, “Necroptosis induced by ruthenium (II) complexes as mitochondrial disruptors” (Cell Death Discovery, 2024).

The subject of assay [1] is HT29 cells. In words: Antiproliferative MTS assay, HT29 cells, 72 h. Type of assay: cell-based, human. The conditions noted are these: 72 h compound incubation. The procedure:
(§1) For evaluation of cell death and viability, cells were plated in 96-well plates at 5 × 10^3 cells/well for next-day treatments. MTS metabolism was evaluated as an indicator of cell viability using CellTiter 96® AQueous non-radioactive cell proliferation assay (Promega, Madison, WI, USA), according to the manufacturer’s instructions. Changes in absorbance were measured at 490 nm using a GloMax®-MultiDetection System (Promega). General cell death was evaluated using the ToxiLight^TM BioAssay Kit (Lonza Walkersville Inc., Walkersville, MD, USA), by determining the quantities of adenylate kinase (AK) released from cells with permeabilized plasma membranes and present in the extracellular medium. The bioluminescent signals were recorded using also the GloMax®-MultiDetection System.
(§2) The primary drug screen was performed using the HCT116 and HT29 cell lines. Cells were seeded in 96-well plates at 5 × 10^3 cells/well and 24 h after, exposed to Ru-TRZ compounds and derivatives at a range of concentrations from 0.012 to 243 μM. Cell proliferation was assessed 72 h later using the MTS assay. As a secondary screen, selected hits were tested using HT29, HepG2, and AML12 wild-type cells seeded in 96-well plates at 5 × 10^3 cells/well. In the following day, cells were exposed to selected compounds at the same range of concentrations for additional 24 h. Cell death was evaluated by the ToxiLight assay. All measurements were performed in duplicate. The half-maximal effective concentration (EC50) and half-maximal inhibitory concentration (IC50) were calculated using the GraphPad Prism Software version 8.0.2 (GraphPad Software, Inc., San Diego, CA, USA) with the log (inhibitor) versus response (variable slope) function.

A further assay has as its system HCT116 cells. In words: Antiproliferative MTS assay, HCT116 cells, 72 h. Type of assay: cell-based, human. The conditions noted are these: 72 h compound incubation. The procedure: as §1, §2
Assay [2] has as its system HT29 cells. Put plainly: Drug combination study (IC50, combination index, CompuSyn). The conditions noted are these: combinations at 1:1 ratio. Type of assay: cell-based, human. The procedure:
In drug combination studies, cells were incubated with TRZ2 combined with 5-fluorouracil (5-FU), oxaliplatin (OXA), and irinotecan (IRI) chemotherapeutics (kindly provided by Hospital Santa Maria, Lisbon, Portugal) at a ratio of 1:1. The effect of combined treatments was evaluated using the CompuSyn software 1.0 (ComboSyn, Inc. and PD Science, LLC). Briefly, the combination index (CI) is a tool to analyze the interaction between drugs allowing to distinguish between synergistic, additive, and antagonistic effects. CI values are calculated considering the concentration of drugs in combination to produce a specific effect (Fraction affected—Fa) and the concentration of drugs to produce that same effect individually. The final CI value is calculated by the average of CI values at Fa 50, 75, 90, and 95%. CI value < 1 indicates synergism while a CI value > 1 indicates antagonism. Fa-CI plot between the levels of different fractions affected against the CI values was also created using CompuSyn software to interpret the type of interactions between TRZ2 and chemotherapeutic drugs. The data points below the additivity line (CI = 1) indicate synergism.

Assay [3] relates to HT29 cells. Put plainly: Mitochondrial ROS production (MitoSOX Red). The class given is cell-based, human. The conditions noted are these: 10 µM, 15 min. The procedure:
Mitochondrial superoxide abundance was quantified by fluorometric quantification. Briefly, HT29 or AML12 cells were plated on a 96-well plate at 5 ×10^3 cells/well and on the next day treated with 10 µM Ru-TRZ, or vehicle control, for additional 15 min. MitoSOX™ Red (Invitrogen, Thermo Fisher Scientific) diluted 1:1000 in HBSS was added (100 μL per well) and incubated at 37 °C in a CO2 incubator for 10 min. Cells were then washed with PBS to remove the excess of dye and fluorescence intensity was measured using a Varioskan™ LUX multimode microplate reader (Thermo Scientific) with excitation and emission wavelengths of 510 and 580 nm, respectively. Fluorescence values were normalized by the cell mass content.

The subject of assay [4] is HT29 cells. In words: Mitochondrial transmembrane potential (JC-1). The class given is cell-based, human. The conditions noted are these: 2 h. The procedure: JC-1 (Sigma-Aldrich) is a cationic dye that represents a reliable fluorescent probe for the assessment of mitochondrial transmembrane potential (ΔΨm). […] HT29 or AML12 cells were plated on a 96-well plate at 5 × 10^3 cells/well and on the next day treated with Ru-TRZ compounds (1 and 5 µM) for 2 h. Carbonyl cyanide m-chlorophenyl hydrazone (CCCP), a mitochondrial depolarizing agent, was used as positive control (200 µM; 4 h). Emitted fluorescence was measured at 530 nm and 590 nm using the GloMax®-MultiDetection System (Promega) and the ratio 590/530 emission intensity was calculated.

A further assay concerns HepG2 cells. Put plainly: Cytotoxicity by AK release (ToxiLight), HepG2 cells, 24 h. Type of assay: cell-based, human. The conditions noted are these: 24 h compound incubation. The procedure: as §1
(§3) The primary drug screen was performed using the HCT116 and HT29 cell lines. […] Cell proliferation was assessed 72 h later using the MTS assay. […] Cell death was evaluated by the ToxiLight assay. […] The half-maximal effective concentration (EC50) and half-maximal inhibitory concentration (IC50) were calculated using the GraphPad Prism Software version 8.0.2 (GraphPad Software, Inc., San Diego, CA, USA) with the log (inhibitor) versus response (variable slope) function.

A further assay relates to AML12 cells. In words: Cytotoxicity by AK release (ToxiLight), AML12 hepatocytes, 24 h. The class given is cell-based, mouse. The conditions noted are these: 24 h compound incubation. Here is the method: as §1, §3
In assay [5] the test system is HT29 cells. Put plainly: Cytotoxicity by AK release (ToxiLight), HT29 cells, 24 h. The class given is cell-based, human. The procedure: as §1, §3
Assay [6] relates to caspase-3/7 activity in HT29 cells. In words: Caspase-Glo 3/7 assay. The class given is cell-based, human. The conditions noted are these: 10 µM, 24 h, p < 0.001. Here is the method: To determine caspase-3/7 activity, HT29 cells were seeded in 96-well plates at 5 ×10^3 cells/well. Twenty-four hours later, cells were incubated with 10 µM Ru-TRZ, or vehicle control, for additional 24 h. Caspase-3 and -7 activation status was measured using the Caspase-Glo® 3/7 Assay (Promega), according to the manufacturer’s instructions. The luminescent signal was recorded using the GloMax®-MultiDetection System (Promega).

The subject of assay [7] is HT29 cells. In words: TSZ (TNF-α + Z-VAD + BV6)-induced necroptosis, AK release. The class given is cell-based, human. The conditions noted are these: Nec-1 30 μM, GSK872 10 μM, 24 h. The procedure: As positive control for necroptosis induction, HT29 cells were treated with 20 ng/mL recombinant human TNF-α (#300-01A, PeproTech EC Ltd., London, UK), 10 μM Z-Val-Ala-Asp-fluoromethylketon (Z-VAD-FMK or Z-VAD) pan-caspase inhibitor (#ALX-260-020, Enzo Life Sciences, Farmingdale, NY, USA), and 250 nM BV6 Smac mimetic (#B4653, ApexBio, Houston, USA), L929 cells were treated with 10 ng/mL recombinant murine TNF-α (#315-01 A, PeproTech), and HepG2 cells were treated with 10 μM doxorubicin (DOXO) (#D1515, Sigma-Aldrich). […]
as §1

The mark [8] stands for this setting: Homo sapiens, HT-29, 24 h incubation.

Regarding `CN(N=Nc1ccc(C#N)cc1)C(=O)c1ccccc1.O=S(=O)([O-])C(F)(F)F.[Ru+2].c1cc[cH-]c1.c1ccc(P(CCP(c2ccccc2)c2ccccc2)c2ccccc2)cc1` [TRZ4], the IC50 in the assay on HT29 cells [1] amounted to 0.23 µM; with HCT116 cells, 0.55 µM.
The matching figures for `CN(C)N=Nc1ccc(C#N)cc1.O=S(=O)([O-])C(F)(F)F.c1cc[cH-]c1.c1ccc([P]2(c3ccccc3)CC[P](c3ccccc3)(c3ccccc3)[Ru+2]2)cc1` [TRZ5]: 0.31 µM and 0.22 µM.
In the case of `CCc1c2c(nc3ccc(OC(=O)N4CCC(N5CCCCC5)CC4)cc13)-c1cc3c(c(=O)n1C2)COC(=O)[C@]3(O)CC` [IRI, irinotecan], in the assay on HT29 cells [2] (setting [8]), the IC50 is 44000 nM.
On to `O=C1[O][Pt]2([NH][C@@H]3CCCC[C@H]3[NH]2)[O]C1=O` [OX, oxaliplatin], for which the IC50 in the assay on HT29 cells [2] (24 h incubation) was 10800 nM.
`CCCC(=O)Nc1ccc(C#N)cc1.O=S(=O)([O-])C(F)(F)F.c1cc[cH-]c1.c1ccc([P]2(c3ccccc3)CC[P](c3ccccc3)(c3ccccc3)[Ru+2]2)cc1` [TRZ7]: the “Increase of mitochondrial ROS” value in the assay with HT29 cells [3] was approximately 3 fold. The “Loss of ΔΨm” value in the assay with HT29 cells [4] (1 µM, JC-1, p < 0.05) was “significant loss of ΔΨm”; with HT29 cells [4] (5 µM, JC-1, CCCP 200 µM 4 h as positive control), “loss of ΔΨm similar to the one induced by CCCP”. Besides, the half-maximal effective concentration (EC50) in the assay on HepG2 cells was 16800 nM; in the assay with AML12 cells it was 40200 nM; in the assay with HT29 cells [5] (AK release, 24 h compound incubation), 15200 nM. The IC50 in the assay with HT29 cells [1] was found to be 0.36 µM; in the assay with HCT116 cells, 0.55 µM. Moreover, the “Cell death (AK release)” value with HT29 cells [5] (10 µM, 24 h, partially reverted by Z-VAD, Nec-1 and GSK872) is reported as “high levels of cell death”. Further, in assay [6], the “Increase in caspase-3/7 activity” value is “up to 4 fold”.
Turning to `N#Cc1ccc(NC(=O)CCOCCOCCOCCN)cc1.O=S(=O)([O-])C(F)(F)F.[Ru+2].c1cc[cH-]c1.c1ccc(P(CCP(c2ccccc2)c2ccccc2)c2ccccc2)cc1` [TRZ6], the IC50 was found to be 3.54 µM in the assay on HT29 cells [1] and 2.42 µM in the assay on HCT116 cells.
In the case of `CN1C(=O)C(Cc2c[nH]c3ccccc23)NC1=S` (centres unmarked) [Nec-1, Necrostatin-1], the “Effect on TSZ-induced cell damage (AK release)” value with HT29 cells [7] was “rescued”.
Take `N#Cc1ccc(NC(=O)COCCOCCOCCN=[N+]=[N-])cc1.O=S(=O)([O-])C(F)(F)F.[Ru+2].c1cc[cH-]c1.c1ccc(P(CCP(c2ccccc2)c2ccccc2)c2ccccc2)cc1` [TRZ8]: the results for the IC50 in the assay with HT29 cells [1] and with HCT116 cells were 0.27 µM and 0.46 µM, respectively.
For `O=c1[nH]cc(F)c(=O)[nH]1` [5-FU, 5-fluorouracil], the IC50 with HT29 cells [2] (setting [8]) is 30000 nM.
Regarding `CC(C)S(=O)(=O)c1ccc2nccc(Nc3ccc4scnc4c3)c2c1` [GSK872], the “Effect on TSZ-induced cell damage (AK release)” value in the assay with HT29 cells [7] is listed as “significantly decreased TSZ-induced AK release”.
